We go through 3 compounds from patent US20250250559A1, “METHOD TO ANALYZE AND OPTIMIZE GENE EDITING MODULES AND DELIVERY APPROACHES” (Hoffmann-La Roche Inc., priority 2016, published 2025).

Several values for one entry are separate records, joined by “and”; a condition that tells them apart may be missing. Equal entries are not always repeated. Entries after “also recorded” stand apart in the source; their conditions may differ. Marks after values point to notes of the source that are not given here.

Holding throughout (format): cell-based, human
Series [1] concerns DPH2 gene. The series is described as follows: DT resistant colony count after DPH2 gene editing. The settings on record: DPH2 assay (integr. vs. k.o.); for # of DT resistant colonies (40,000 seeded cells): MCF7, individual samples A-D. As to the method:
(§1) MCF7 cells (Brooks, et al. 1973) were originally obtained from ATCC (subsequently propagated in an in-house cell bank) and maintained in RPMI […] medium supplemented with 10% FCS, 2 mM L-Glutamine and penicillin/streptomycin at 37° C. and 85% humidity. For transfection of plasmids harboring gene-editing modules, 3,000,000 cells were seeded in a 10 cm diameter culture dish and cultivated at 37° C. and humidified 5% CO2. 24 h after seeding, cells were transfected with 20 μg total DNA using JetPEI (Polyplus) according to the manufacturer's protocol but with an N/P ratio of 6:1. Transfection efficiency was determined after 24 h by flow cytometry (FACS Calibur, BD biosciences) of cells that were transfected with a modified eGFP expression plasmid (Zhang, et al. 1996).
(§2) Plasmids encoding CRISPR/Cas9 gene-editing entities (i.e. knock-out and integration systems) against Dph1 (gRNA target sequence: […] (SEQ ID NO: 01) derived from RefSeq: NM_001383) and Dph2 (gRNA target sequence: […] (SEQ ID NO: 02) derived from RefSeq: NM_001039589, NM_001384), and scrambled control (gRNA sequence: […] (SEQ ID NO: 03)) were obtained from OriGene. This system comprises one plasmid expressing a ˜100 nt gRNA under control of a U6 promoter as well as Cas9 nuclease under control of a CMV promoter and a Donor plasmid with a promoter-less GFP/PM expression cassette flanked by homologous arms to the target gene (Dph1 or Dph2). Additional Dph1 gRNA sequence variants of different sizes (OriGene) […]
(§3) MCF7 cells which have all chromosomal copies of DPH1 or DPH2 inactivated are resistant to diphtheria toxin (Stahl, et al. 2015). Thus, occurrence and frequency of toxin resistant cells/colonies upon CRISPR/Cas inflicted gene inactivation provides a measure for efficiency of inactivation of all gene copies. Therefore, MCF/cells were transfected as described in Example 1 with (i) a GFP expression plasmid as transfection control, (ii) the CRISPR/Cas9 Dph1 or Dph2 knock-out/integration system and (iii) knock-out/integration entities containing a scrambled gRNA to determine Cas9 independent integration frequencies. After determination of transfection efficiency, cells were seeded in 6-well plates. For quantification of homozygous knock-out events by DT 20000 cells were seeded and for quantification of integration events by PM or both events 40000 cells were seeded. RPMI medium was exchanged by RPMI medium containing DT or PM or both toxins 3 days after cell seeding. Exchange of medium was repeated every 2-3 days until all dead cells were removed from the plates and actively growing colonies could be detected via microscopic inspection. Thereafter (between day 12 and day 14 after start of toxin exposure), cells were washed 3 times with PBS and subsequently stained with ice cold methylene blue (0.2% in 50% EtOH). Methylene blue solution was subsequently removed and the plates were carefully washed under running water. Finally, cell colonies were counted under the microscope with a 5 mm grid foil.

The subject of series [2] is DPH2 gene. The series is described as follows: PM resistant colony count after DPH2 gene editing. The settings on record: DPH2 assay (integr. vs. k.o.); for # of PM resistant colonies (40,000 seeded cells): MCF7, individual samples A-D. As to the method: as §1, §2, §3
(§4) CRISPR/Cas module for targeted integration contains a puromycin (PM) resistance gene expression cassette without promoter to avoid transient expression. Thus, detection of integration of recombinant sequences into the genome was detected by determining sensitivity of cells towards PM. A concentration of […] PM (which quantitatively eliminates wildtype MCF7 cells) was applied to select MCF7 cells with stably integrated expression cassettes. PM-resistant colonies selected with the same procedure as described above for the DT selection and visualized and quantified (between 12 and 14 days after start of selection) in the same manner as described above for toxin resistant colonies. Number of PM resistant colonies obtained with non-target guide sequences (scrambled gRNA, FIG. 1) reflect the nonspecific integration background. […]

The test system of series [3] is DPH1 gene. The series is described as follows: PM resistant colony count after DPH1 gene editing (PAC cassette integration). To be noted: for # of PM resistant colonies (40,000 seeded cells): MCF7, individual samples A-D. As to the method:
as §1, §2
as §3, with “For quantification of homozygous knock-out events by DT 20000 cells were seeded and for quantification of integration events by PM or both events 40000 cells were seeded.” left out
as §4, with “background. Increase in colonies (above nonspecific background) obtained with target-gene gRNAs which are PM-resistant but toxin sensitive reflect integration into just one target allele, leaving the other dph1 or dph2 allele unaffected.” for “background.”

Series [4] relates to DPH1 gene. The series is described as follows: DT resistant colony count after DPH1 gene editing (homozygous gene inactivation). To be noted: DPH1 (gRNA length), TF eff. = 31%; for # of DT resistant colonies (20,000 seeded cells): MCF7, individual samples A-D. The method, then:
as §1, §2, §3
MCF7 cells which have all chromosomal copies of DPH1 inactivated are DT resistant. Thus, occurrence and frequency of DTr colonies upon ZFN inflicted gene inactivation and/or cassette integration provides a measure for efficacy of inactivation of all gene copies. The ZFN recognition sequence ([…], cleavage site, SEQ ID NO: 10) are derived from NM_001383.3 (DPH1-wt) and were obtained from Sigma Aldrich. A PAC integration cassette for this position was obtained from OriGene. MCF7 cells were transfected as described above with (i) a GFP expression plasmid, (ii) the plasmid encoding DPH1-targeting ZFN and (iii) the DPH1-targeting PAC-integration cassette. After determination of transfection efficiency, cells were seeded in 6-well plates. For quantification of homozygous knock-out events (DTr) 20,000 cells were seeded, 40,000 cells for quantification of integration events (PMr) or double resistances. […]

Series [5] has as its system DPH1 gene. The series is described as follows: DT + PM double resistant colony count after DPH1 gene editing (integration with inactivation). To be noted: DPH1 (gRNA length), TF eff. = 31%; for # of DT + PM resistant colonies (40,000 seeded cells): MCF7, individual samples A-D.
Method: MCF7 cells (Brooks, et al. 1973) were originally obtained from ATCC (subsequently propagated in an in-house cell bank) and maintained in RPMI 1641 medium supplemented with 10% FCS, 2 mM L-Glutamine and penicillin/streptomycin at 37° C. and 85% humidity. For transfection of plasmids harboring gene-editing modules, 3,000,000 cells were seeded in a 10 cm diameter culture dish and cultivated at 37° C. and humidified 5% CO2. 24 h after seeding, cells were transfected with 20 μg total DNA using JetPEI (Polyplus) according to the manufacturer's protocol but with an N/P ratio of 6:1. Transfection efficiency was determined after 24 h by flow cytometry (FACS Calibur, BD biosciences) of cells that were transfected with a modified eGFP expression plasmid (Zhang, et al. 1996).
CRISPR/Cas module for targeted integration contains a puromycin (PM) resistance gene expression cassette without promoter to avoid transient expression. Thus, detection of integration of recombinant sequences into the genome was detected by determining sensitivity of cells towards PM. A concentration of 500 ng/μL PM (which quantitatively eliminates wildtype MCF7 cells) was applied to select MCF7 cells with stably integrated expression cassettes. PM-resistant colonies selected with the same procedure as described above for the DT selection and visualized and quantified (between 12 and 14 days after start of selection) in the same manner as described above for toxin resistant colonies. Number of PM resistant colonies obtained with non-target guide sequences (scrambled gRNA, FIG. 1) reflect the nonspecific integration background. Increase in colonies (above nonspecific background) obtained with target-gene gRNAs which are PM-resistant but toxin sensitive reflect integration into just one target allele, leaving the other dph1 or dph2 allele unaffected. PM resistant colonies that are also DT resistant have the expression cassette integrated into at least target allele and the other allele either inactivated or inactivated accompanied by yet another integration event.
Series [6] relates to MCF-7 cells. The series is described as follows: DT resistant colony count of MCF-7 exposed to SCR7 and/or RS-1 during SpCas9-mediated DPH1 editing. The method, then: (§5) To evaluate and quantify the influence of DNA repair modulators on efficiency and specificity of gene editing, CRISPR/SpCAS9 and DPH1 targeting 20 mer gRNA was combined with compounds that modulate DNA repair mechanisms. The inhibitor Scr7 was applied either 4 hrs before transfection or 18 hrs after transfection of the gene editing modules until […] after transfection to inhibit DNA ligase IV.
SCR7 (1 μM final conc.) or RS-1 (8 μM final conc.) or SCR7+RS-1 (1 μM+8 μM final conc.) were added to MCF7 cells 4 hrs before transfection of the gene editing modules in the ‘early exposure’ setting. For ‘late exposure’ SCR7 (8 µM final conc.) or RS-1 (1 μM final conc.) were added to MCF7 cells 18 hrs after transfection. In both settings, cells were exposed to the modulators until 96 hr after transfection, i.e. ‘early exposure’ consisted of a treatment for a total of 100 hrs, ‘late exposure’ for a total of 78 hrs.
(§6) The system upon which to determine the effects of DNA repair modulators consisted of the CRISPR/SpCas9 modules with DPH1 20 mer gRNA, transfected into MCF7 cells and subjected to subsequent DT and PM selection as described in the previous Examples. Frequencies of DTr, PMr, and double-resistant colonies were recorded to reflect gene inactivation and cassette integration events.

The test system of series [7] is MCF-7 cells. The description is as above. The settings on record: SpCas9 Dph1 gRNA (20 mer); compound added 18 hrs after transfection; RS-1 8 μM, SCR7 1 μM.
Series [8] has as its system MCF-7 cells. The series is described as follows: PM resistant colony count of MCF-7 exposed to SCR7 and/or RS-1 during SpCas9-mediated DPH1 editing. The settings on record: for mean PMr colonies #seeded cells: 80,000: SpCas9 Dph1 gRNA (20 mer). The method, then:
as §5
SCR7 (1 μM final conc.) or RS-1 (8 μM final conc.) or SCR7+RS-1 (1 μM+8 μM final conc.) were added to MCF7 cells 4 hrs before transfection of the gene editing modules in the ‘early exposure’ setting. […]
as §6

A further series concerns MCF7. The series is described as follows: Viability (Promega CTG) assay. The settings on record: 1 μM Scr7, 8 μM RS-1, 1 μM+8 μM combined. As to the method: The RAD51-stimulatory compound 1 (RS-1) was applied to modulate homologous recombination (HR) during gene editing. RS-1 (Sigma Aldrich) was dissolved in DMSO to generate a stock solution of 10 mg/ml, which was diluted in RPMI medium just before application to cells.
The DNA ligase IV inhibitor SCR7 was applied to modulate non-homologous end joining (NHEJ) during gene editing. SCR7 (Sigma) was dissolved in DMSO to generate a stock solution of 10 mg/ml, which was diluted in RPMI medium just before application to cells.

Setting [9] is: listed as Dph2 CRISPR Cas9 gRNA.
[10] abbreviates: DPH1 (gRNA length), TF eff. = 31%.
The mark [11] stands for this setting: listed as 26 mer Dph1 CRISPR Cas9 gRNA.
The mark [12] stands for this setting: listed as 26 mer Dph1 CRISPR/Cas9 gRNA.
The mark [13] stands for this setting: compound added 4 hr before transfection.
[14] abbreviates: compound added 4 hrs before transfection.
Setting [15] is: compound added 18 hr after transfection.

“20 mer SpCas9 Dph2 gRNA: Plasmids encoding SpCas9 and Dph2 gRNA (target GATGTTTAGCAGCCCTGCCG, SEQ ID NO: 02) plus donor plasmid”: the “# of DT resistant colonies (40,000 seeded cells) (unheaded second sub-column: mean)” value with DPH2 gene [1] (MCF7) worked out at 130. The “# of DT resistant colonies (40,000 seeded cells)” value with DPH2 gene [1] was 162 and 227 (2×) and 215; in the series on DPH2 gene [1] (setting [9]) it was 162 and 227 (2×) and 215. Further, in the series with DPH2 gene [2] (MCF7), the “# of PM resistant colonies (40,000 seeded cells) (unheaded second sub-column: mean)” value stood at 1.5. Also, the “# of PM resistant colonies (40,000 seeded cells)” value with DPH2 gene [2] is 0 (2×) and 1 and 3; in the series with DPH2 gene [2] (setting [9]) it was 0 (2×) and 1 and 3.

Turning to “26 mer SpCas9 Dph1 gRNA: Dph1 gRNA sequence variant GCGGAGCAGGGCGGCCGAGACGGCCC with SpCas9 (chemistry not given here)”, the “# of PM resistant colonies (40,000 seeded cells)” value in the series on DPH1 gene [3] (setting [10]) is 12 (2×) and 11 and 9; in the series with DPH1 gene [3] (DPH1 (gRNA length), TF eff. = 31%, listed as 26 mer Dph1 CRISPR Cas9 gRNA) it was 12 (2×) and 11; in the series with DPH1 gene [3] (DPH1 (gRNA length), TF eff. = 31%, listed as 26 mer Dph1 CRISPR/Cas9 gRNA), 9. Also, the “# of PM resistant colonies (40,000 seeded cells) (unheaded second sub-column: mean)” value in the series with DPH1 gene [3] (setting [10]) came out at 11. Besides, in the series with DPH1 gene [3] (PMr colonies), the “integration efficacy in dependence on gRNA length” value was “Targeted integration clearly above background was observed”. The “# of DT resistant colonies (20,000 seeded cells)” value was 161 and 155 and 176 and 187 with DPH1 gene [4]; 161 and 155 and 176 in the series with DPH1 gene [4] (setting [11]); 187 in the series on DPH1 gene [4] (setting [12]). For the same compound, the “# of DT resistant colonies (20,000 seeded cells) (unheaded second sub-column: mean)” value in the series on DPH1 gene [4] came out at 170. The “# of DT + PM resistant colonies (40,000 seeded cells)” value with DPH1 gene [5] was 0 (2×) and 1 (2×); in the series with DPH1 gene [5] (setting [11]) it was 0 (2×) and 1; in the series with DPH1 gene [5] (setting [12]), 1. Besides, in the series on DPH1 gene [5], the “# of DT + PM resistant colonies (40,000 seeded cells) (unheaded second sub-column: mean)” value is recorded as 1.

As to `O=C(Nc1ccc(Br)cc1)c1ccc(Br)c(S(=O)(=O)NCc2ccccc2)c1` [RS-1, RAD51-stimulatory compound 1], the “mean DTr colonies #seeded cells: 40,000” value with MCF-7 cells [6] (SpCas9 Dph1 gRNA (20 mer), compound added 4 hrs before transfection, RS-1 8 μM, SCR7 1 μM) was 201.5; with MCF-7 cells [7] it was 512.5. Further, the “% DT resistant colonies relative to untreated control” value in the series with MCF-7 cells [6] (setting [13]) and in the series with MCF-7 cells [6] (setting [15]) was 100% throughout. Moreover, the “gRNA specific DT-r colonies (gRNA-scRNA)” value in the series with MCF-7 cells [6] (setting [14]) was 201.5. Moreover, in the series with MCF-7 cells [6] (editing entity SpCas9-scRNA, compound added 4 hrs before transfection), the “Mean DT resistant colonies (4 × 40.000 seeded cells)” value stood at 0. The “mean PMr colonies #seeded cells: 80,000” value stood at 14 in the series on MCF-7 cells [8] (compound added 4 hrs before transfection, RS-1 8 μM, SCR7 1 μM) and 15.3 with MCF-7 cells [8] (compound added 18 hrs after transfection, RS-1 8 μM, SCR7 1 μM). In the series on MCF-7 cells [8] (SpCas9 Dph1 gRNA, compound added 18 hrs after transfection, RS-1 8 μM, SCR7 1 μM), the “% PMr relative to DTr colonies” value was found to be 3.0%. The figures for the “% PM resistant colonies relative to untreated control” value in the series with MCF-7 cells [8] (setting [13]) and in the series with MCF-7 cells [8] (setting [15]) were 165%* and 76%, respectively. Also, the “gRNA specific PM-r colonies (gRNA-scRNA)” value in the series on MCF-7 cells [8] (setting [14]) is reported as 10.2. Also, the “effect on the growth or viability of MCF7 cells at the applied dose” value with MCF7 is “no effect on the growth or viability; also recorded: does not inflict growth inhibitory or toxic effects”.
